# Molecular target: T1, mALDH1a3 (Mus musculus, UniProt Q9JHW9)
# T1 construct: made in house; host or cells: E. coli BL21-DE3, pET-Aldh1a3
# T1 sequence (Q9JHW9 1-512): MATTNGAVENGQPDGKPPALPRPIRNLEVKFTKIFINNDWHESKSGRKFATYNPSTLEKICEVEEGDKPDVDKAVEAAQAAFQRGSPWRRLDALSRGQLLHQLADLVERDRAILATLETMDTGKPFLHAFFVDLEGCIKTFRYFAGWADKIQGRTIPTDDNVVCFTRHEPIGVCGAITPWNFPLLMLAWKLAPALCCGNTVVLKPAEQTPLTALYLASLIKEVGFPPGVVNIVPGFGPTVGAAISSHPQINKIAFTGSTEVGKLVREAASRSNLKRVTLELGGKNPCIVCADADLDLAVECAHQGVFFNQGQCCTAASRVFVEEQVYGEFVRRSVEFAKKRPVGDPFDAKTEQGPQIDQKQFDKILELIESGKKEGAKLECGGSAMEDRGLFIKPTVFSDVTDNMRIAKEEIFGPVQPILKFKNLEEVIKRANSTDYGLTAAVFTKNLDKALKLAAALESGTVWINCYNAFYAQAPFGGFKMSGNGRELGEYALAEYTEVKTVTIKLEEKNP
# Experiment: Aldh1a3 enzyme inhibition assay, recombinant mALDH1a3
# Type: biochemical
# Conditions: resorufin fluorescence, 20° C.
# Description: (§1) Recombinant enzyme and inhibitor added immediately before assay. Reaction rate measured by resorufin fluorescence.
row,IC50,Compound
1,> 5 µM,CC1(C)Cc2cc(NN3CCC(c4ccccc4)C3=O)ccc2NC1=O (centres unmarked) [Compound 106]
2,> 5 µM,"CC1(C)Cc2cc(Nc3ccc(Cl)c(Cl)n3)ccc2NC1=O [Compound 97, 6-[(5,6-dichloro-2-pyridyl)amino]-3,3-dimethyl-1,4-dihydroquinolin-2-one]"
3,> 5 µM,"CCc1cnccc1CC(=O)Nc1ccc2c(c1)CCC(=O)N2 [Compound 31, 2-(3-ethyl-4-pyridyl)-N-(2-oxo-3,4-dihydro-1H-quinolin-6-yl) acetamide]"
4,< 0.1 µM,"O=C1CCc2cc(Nc3ccc4ccccc4n3)ccc2N1 [Compound 35, 6-(2-quinolylamino)-3,4-dihydro-1H-quinolin-2-one]"
5,> 5 µM,O=S1(=O)CCc2cc(Nc3ccc4ccccc4n3)ccc2N1 [Compound 102]
6,> 5 µM,"CC1(C)Cc2cc(Nc3cc(Cl)c(Cl)cn3)ccc2NC1=O [Compound 125, 6-[(4,5-dichloro-2-pyridyl)amino]-3,3-dimethyl-1,4-dihydroquinolin-2-one]"
7,1 to 5 µM,"Cc1cnccc1/C=C/c1ccc2c(c1)CCC(=O)N2 [Compound 30, 6-[(E)-2-(3-methyl-4-pyridyl)vinyl]-3,4-dihydro-1H-quinolin-2-one]"
8,> 5 µM,"N#Cc1ccc2ccc(Nc3ccc4c(c3)CCC(=O)N4)nc2c1 [Compound 90, 2-[(2-oxo-3,4-dihydro-1H-quinolin-6-yl)amino]quinoline-7-carbonitrile]"
9,0.25 to 1 µM,"CCc1cnccc1C(=O)Nc1ccc2c(c1)C(C)CC(=O)N2 (centres unmarked) [Compound 64, 3-ethyl-N-(4-methyl-2-oxo-3,4-dihydro-1H-quinolin-6-yl)pyridine-4-carboxamide]"
10,0.1 to 0.25 µM,"CC1(C)Cc2cc(Nc3cnc4ccccc4n3)ccc2NC1=O [Compound 92, 3,3-dimethyl-6-(quinoxalin-2-ylamino)-1,4-dihydroquinolin-2-one]"
11,1 to 5 µM,"CCc1cnccc1C(=O)Nc1ccc2c(c1)C(C)(C)CC(=O)N2 [Compound 19, N-(4,4-dimethyl-2-oxo-1,3-dihydroquinolin-6-yl)-3-ethyl-pyridine-4-carboxamide]"
12,> 5 µM,"CC1(C)Cc2cc(Nc3cnc4ccc(C(=O)O)cc4n3)ccc2NC1=O [Compound 118, 3-[(3,3-dimethyl-2-oxo-1,4-dihydroquinolin-6-yl)amino]quinoxaline-6-carboxylic acid]"
13,0.25 to 1 µM,"CCc1cnccc1/C=C/c1cc2c(cc1F)NC(=O)CC2 [Compound 45, 6-[(E)-2-(3-ethyl-4-pyridyl)vinyl]-7-fluoro-3,4-dihydro-1H-quinolin-2-one]"
14,0.1 to 0.25 µM,"O=C1CCc2cc(NC(=O)c3ccnc4ccccc34)ccc2N1 [Compound 52, N-(2-oxo-3,4-dihydro-1H-quinolin-6-yl)quinoline-4-carboxamide]"
15,0.25 to 1 µM,"CCc1cnccc1C(=O)Nc1cc2c(cc1Cl)NC(=O)CC2 [Compound 70, N-(7-chloro-2-oxo-3,4-dihydro-1H-quinolin-6-yl)-3-ethyl-pyridine-4-carboxamide]"
16,> 5 µM,"CCc1cnccc1C(=O)Nc1ccc2c(c1)CN(C)C(=O)N2 [Compound 20, 3-ethyl-N-(3-methyl-2-oxo-1,4-dihydroquinazolin-6-yl)pyridine-4-carboxamide]"
17,1 to 5 µM,CCc1cnccc1C(=O)Nc1cc2c(cc1F)NC(=O)C(C)(C)C2 [Compound 38]
18,0.25 to 1 µM,CCc1cnccc1C(=O)Nc1cc2c(cc1F)NC(=O)CC2(C)C [Compound 40]
19,1 to 5 µM,"CCc1cnccc1C(=O)Nc1ccc2c(c1)CC(C)(C)C(=O)N2 [Compound 18, N-(3,3-dimethyl-2-oxo-1,4-dihydroquinolin-6-yl)-3-ethyl-pyridine-4-carboxamide]"

# Molecular target: T2, ALDH1a3 (Homo sapiens, UniProt P47895)
# T2 sequence (P47895 1-512): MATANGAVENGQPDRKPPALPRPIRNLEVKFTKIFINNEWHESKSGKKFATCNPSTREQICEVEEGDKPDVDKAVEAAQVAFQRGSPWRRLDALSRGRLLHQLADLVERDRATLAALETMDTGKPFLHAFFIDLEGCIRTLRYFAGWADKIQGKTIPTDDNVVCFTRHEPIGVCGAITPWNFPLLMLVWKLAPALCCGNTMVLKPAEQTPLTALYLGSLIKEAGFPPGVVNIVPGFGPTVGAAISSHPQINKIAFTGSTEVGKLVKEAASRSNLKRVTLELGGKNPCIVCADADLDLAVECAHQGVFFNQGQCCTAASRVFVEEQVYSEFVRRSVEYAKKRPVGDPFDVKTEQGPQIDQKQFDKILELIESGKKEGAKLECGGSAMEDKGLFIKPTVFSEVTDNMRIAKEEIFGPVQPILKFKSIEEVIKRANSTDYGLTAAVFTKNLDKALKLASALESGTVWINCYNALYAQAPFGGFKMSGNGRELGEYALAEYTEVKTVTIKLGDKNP
# Experiment: Aldh1a3 enzyme inhibition assay, recombinant hALDH1a3
# Type: biochemical
# Set-up: made in house; host or cells: E. coli BL21-DE3, pET-Aldh1a3
# Conditions: resorufin fluorescence, 20° C.
# Description: as §1
row,IC50,Compound
1,> 5 µM,CC1(C)Cc2cc(NN3CCC(c4ccccc4)C3=O)ccc2NC1=O (centres unmarked) [Compound 106]
2,1 to 5 µM,"CC1(C)Cc2cc(Nc3ccc(Cl)c(Cl)n3)ccc2NC1=O [Compound 97, 6-[(5,6-dichloro-2-pyridyl)amino]-3,3-dimethyl-1,4-dihydroquinolin-2-one]"
3,> 5 µM,"CCc1cnccc1CC(=O)Nc1ccc2c(c1)CCC(=O)N2 [Compound 31, 2-(3-ethyl-4-pyridyl)-N-(2-oxo-3,4-dihydro-1H-quinolin-6-yl) acetamide]"
4,0.25 to 1 µM,"O=C1CCc2cc(Nc3ccc4ccccc4n3)ccc2N1 [Compound 35, 6-(2-quinolylamino)-3,4-dihydro-1H-quinolin-2-one]"
5,> 5 µM,O=S1(=O)CCc2cc(Nc3ccc4ccccc4n3)ccc2N1 [Compound 102]
6,0.25 to 1 µM,"CC1(C)Cc2cc(Nc3cc(Cl)c(Cl)cn3)ccc2NC1=O [Compound 125, 6-[(4,5-dichloro-2-pyridyl)amino]-3,3-dimethyl-1,4-dihydroquinolin-2-one]"
7,> 5 µM,"Cc1cnccc1/C=C/c1ccc2c(c1)CCC(=O)N2 [Compound 30, 6-[(E)-2-(3-methyl-4-pyridyl)vinyl]-3,4-dihydro-1H-quinolin-2-one]"
8,> 5 µM,"N#Cc1ccc2ccc(Nc3ccc4c(c3)CCC(=O)N4)nc2c1 [Compound 90, 2-[(2-oxo-3,4-dihydro-1H-quinolin-6-yl)amino]quinoline-7-carbonitrile]"
9,0.1 to 0.25 µM,"CCc1cnccc1C(=O)Nc1ccc2c(c1)C(C)CC(=O)N2 (centres unmarked) [Compound 64, 3-ethyl-N-(4-methyl-2-oxo-3,4-dihydro-1H-quinolin-6-yl)pyridine-4-carboxamide]"
10,0.1 to 0.25 µM,"CC1(C)Cc2cc(Nc3cnc4ccccc4n3)ccc2NC1=O [Compound 92, 3,3-dimethyl-6-(quinoxalin-2-ylamino)-1,4-dihydroquinolin-2-one]"
11,0.25 to 1 µM,"CCc1cnccc1C(=O)Nc1ccc2c(c1)C(C)(C)CC(=O)N2 [Compound 19, N-(4,4-dimethyl-2-oxo-1,3-dihydroquinolin-6-yl)-3-ethyl-pyridine-4-carboxamide]"
12,> 5 µM,"CC1(C)Cc2cc(Nc3cnc4ccc(C(=O)O)cc4n3)ccc2NC1=O [Compound 118, 3-[(3,3-dimethyl-2-oxo-1,4-dihydroquinolin-6-yl)amino]quinoxaline-6-carboxylic acid]"
13,0.25 to 1 µM,"CCc1cnccc1/C=C/c1cc2c(cc1F)NC(=O)CC2 [Compound 45, 6-[(E)-2-(3-ethyl-4-pyridyl)vinyl]-7-fluoro-3,4-dihydro-1H-quinolin-2-one]"
14,0.25 to 1 µM,"O=C1CCc2cc(NC(=O)c3ccnc4ccccc34)ccc2N1 [Compound 52, N-(2-oxo-3,4-dihydro-1H-quinolin-6-yl)quinoline-4-carboxamide]"
15,< 0.1 µM,"CCc1cnccc1C(=O)Nc1cc2c(cc1Cl)NC(=O)CC2 [Compound 70, N-(7-chloro-2-oxo-3,4-dihydro-1H-quinolin-6-yl)-3-ethyl-pyridine-4-carboxamide]"
16,1 to 5 µM,"CCc1cnccc1C(=O)Nc1ccc2c(c1)CN(C)C(=O)N2 [Compound 20, 3-ethyl-N-(3-methyl-2-oxo-1,4-dihydroquinazolin-6-yl)pyridine-4-carboxamide]"
17,0.25 to 1 µM,CCc1cnccc1C(=O)Nc1cc2c(cc1F)NC(=O)C(C)(C)C2 [Compound 38]
18,1 to 5 µM,CCc1cnccc1C(=O)Nc1cc2c(cc1F)NC(=O)CC2(C)C [Compound 40]
19,0.1 to 0.25 µM,"CCc1cnccc1C(=O)Nc1ccc2c(c1)CC(C)(C)C(=O)N2 [Compound 18, N-(3,3-dimethyl-2-oxo-1,4-dihydroquinolin-6-yl)-3-ethyl-pyridine-4-carboxamide]"
